{"source": "ChEMBL document CHEMBL3108712", "about": "“Viniphenol A, a complex resveratrol hexamer from Vitis vinifera stalks: structural elucidation and protective effects against amyloid-β-induced toxicity in PC12 cells” (J Nat Prod, 2014)", "tested_on": "PC-12", "test": "Neuroprotective activity against amyloid beta (25 to 35)-induced toxicity in rat PC12 cells assessed as cell viability preincubated for 48 hrs with amyloid beta (25 to 35) followed by addition to cell culture measured after 24 hrs by MTT assay", "format": "functional, cell-based", "data": [{"smiles": "Oc1ccc([C@@H]2c3c(O)cc(O)cc3[C@H]3c4c(cc(O)cc4[C@@H]2[C@@H](c2ccc(O)cc2)[C@@H]2c4cc(O)cc5c4[C@H](c4cc(O)cc(O)c4[C@@H](c4ccc(O)cc4)[C@@H]2c2cc(O)cc4c2[C@H](c2cc(O)cc(O)c2)[C@@H](c2ccc(O)cc2)O4)[C@@H](c2ccc(O)cc2)O5)O[C@@H]3c2ccc(O)cc2)cc1", "values": [{"measurement": "Activity", "result": "Dose-dependent effect"}]}]}
